From patent US4401660A, “Ester derivatives of 5-O-mycaminosyl tylonolide and method of using same” (Eli Lilly and Company, priority 1981, dated 1983)

What was measured:
Pasteurella multocida = assay: Treatment of Pasteurella infections in chicks (Table V); format: in vivo, one-day-old chicks; conditions: 30 mg/kg by subcutaneous injection one and four hours post challenge; for mortality at 30 mg/kg: Pasteurella multocida, sc, 4 h, read-out: Deaths in Treated Chicks/Number Treated (converted)
Procedure, shortened: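 One-day-old chicks challenged subcutaneously with avian P. multocida (0.1 ml of 10^-3 dilution of 20-hour tryptose broth culture). Esters given at 30 mg/kg subcutaneously at 1 and 4 hours post challenge. Untreated infected controls, ten per group.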

Mycoplasma gallisepticum = assay: MIC, broth-dilution microtiter test (Table III); format: cell-based; parameters: unit not given here
Protocol: (§1) The MIC's in Table II were determined by standard agar-dilution assays. The MIC's in Table III were obtained using a conventional broth-dilution microtiter test.

Staphylococcus aureus = assay: MIC, broth-dilution microtiter test (Table III); format: cell-based; parameters: unit not given here
Protocol: as §1

[1] = test system: Pasteurella haemolytica 23C; assay: MIC, broth-dilution microtiter test (Table III); format: cell-based; parameters: unit not given here
Protocol: as §1

[2] = test system: Pasteurella haemolytica 22C; assay: MIC, broth-dilution microtiter test (Table III); format: cell-based; parameters: unit not given here
Protocol: as §1

[3] = test system: Pasteurella multocida 68C; assay: MIC, broth-dilution microtiter test (Table III); format: cell-based; parameters: unit not given here
Protocol: as §1

Mycoplasma hyorhinis = assay: MIC, broth-dilution microtiter test (Table III); format: cell-based; parameters: unit not given here
Protocol: as §1

[4] = test system: Pasteurella multocida 60A; assay: MIC, broth-dilution microtiter test (Table III); format: cell-based; parameters: unit not given here; conditions: avian isolate
Protocol: as §1

[5] = test system: Pasteurella multocida 40G; assay: MIC, broth-dilution microtiter test (Table III); format: cell-based; parameters: unit not given here
Protocol: as §1

[6] = test system: Pasteurella haemolytica 41D; assay: MIC, broth-dilution microtiter test (Table III); format: cell-based; parameters: unit not given here
Protocol: as §1

[7] = test system: Pasteurella multocida 22A; assay: MIC, broth-dilution microtiter test (Table III); format: cell-based; parameters: unit not given here
Protocol: as §1

Streptococcus sp. 80 = assay: MIC, broth-dilution microtiter test (Table III); format: cell-based; parameters: unit not given here
Protocol: as §1

[8] = test system: Pasteurella multocida 17E; assay: MIC, broth-dilution microtiter test (Table III); format: cell-based; parameters: unit not given here; conditions: bovine isolate
Protocol: as §1

[9] = test system: Staphylococcus aureus S13E; assay: MIC, standard agar-dilution assay (Table II); format: cell-based; parameters: unit not given here
Protocol: as §1

[10] = test system: Staphylococcus aureus X400; assay: MIC, standard agar-dilution assay (Table II); format: cell-based; parameters: unit not given here; conditions: Staphylococcus aureus X400, methicillin-resistant strain
Protocol: as §1

[11] = test system: Streptococcus Group D X66; assay: MIC, standard agar-dilution assay (Table II); format: cell-based; parameters: unit not given here
Protocol: as §1

[12] = test system: Streptococcus pneumoniae Park I; assay: MIC, standard agar-dilution assay (Table II); format: cell-based; parameters: unit not given here
Protocol: as §1

[13] = test system: Streptococcus pyogenes C203; assay: MIC, standard agar-dilution assay (Table II); format: cell-based; parameters: unit not given here
Protocol: as §1

[14] = test system: Staphylococcus epidermidis EPI2; assay: MIC, standard agar-dilution assay (Table II); format: cell-based; parameters: unit not given here
Protocol: as §1

[15] = test system: Haemophilus influenzae R252; assay: MIC, standard agar-dilution assay (Table II); format: cell-based; parameters: unit not given here; conditions: Haemophilus influenzae R252, ampicillin-resistant strain
Protocol: as §1

[16] = test system: Staphylococcus epidermidis EPI1; assay: MIC, standard agar-dilution assay (Table II); format: cell-based; parameters: unit not given here
Protocol: as §1

[17] = test system: Haemophilus influenzae Holt; assay: MIC, standard agar-dilution assay (Table II); format: cell-based; parameters: unit not given here; conditions: ampicillin-sensitive strain
Protocol: as §1

[18] = test system: Staphylococcus aureus X1.1; assay: MIC, standard agar-dilution assay (Table II); format: cell-based; parameters: unit not given here
Protocol: as §1

[19] = test system: Streptococcus Group D 9960; assay: MIC, standard agar-dilution assay (Table II); format: cell-based; parameters: unit not given here
Protocol: as §1

[20] = test system: Staphylococcus aureus V41; assay: MIC, standard agar-dilution assay (Table II); format: cell-based; parameters: unit not given here; conditions: Staphylococcus aureus V41, penicillin-resistant strain
Protocol: as §1

| Structure (SMILES) | minimal inhibitory concentration (MIC) (Mycoplasma gallisepticum) | minimal inhibitory concentration (MIC) (Staphylococcus aureus) | minimal inhibitory concentration (MIC) [1] | minimal inhibitory concentration (MIC) [2] | minimal inhibitory concentration (MIC) [3] | minimal inhibitory concentration (MIC) (Mycoplasma hyorhinis) | minimal inhibitory concentration (MIC) [4] | minimal inhibitory concentration (MIC) [5] | minimal inhibitory concentration (MIC) [6] | minimal inhibitory concentration (MIC) [7] | minimal inhibitory concentration (MIC) (Streptococcus sp. 80) | minimal inhibitory concentration (MIC) [8] | minimal inhibitory concentration (MIC) [9] | minimal inhibitory concentration (MIC) [10] | minimal inhibitory concentration (MIC) [11] | minimal inhibitory concentration (MIC) [12] | minimal inhibitory concentration (MIC) [13] | minimal inhibitory concentration (MIC) [14] | minimal inhibitory concentration (MIC) [15] | minimal inhibitory concentration (MIC) [16] | further results |
| --- | --- | --- | --- | --- | --- | --- | --- | --- | --- | --- | --- | --- | --- | --- | --- | --- | --- | --- | --- | --- | --- |
| CCC1OC(=O)CC(O)C(C)C(OC2OC(C)C(OC(C)=O)C(N(C)C)C2OC(C)=O)C(CC=O)CC(C)C(=O)C=CC(C)=CC1COC(=O)COc1ccccc1 (stereo not drawn) [Compound 34, 2',4'-Di-O-acetyl-23-O-phenoxyacetyl-OMT] | < 0.05 | 0.097 | 3.12 | 3.12 | 1.56 | 3.12 | 1.56 | 1.56 | 3.12 | 3.12 | < 0.05 | 1.56 | 0.25 | 0.25 | 0.25 | 0.015 | 0.06 | 0.5 | 1 | 0.25 | mortality at 30 mg/kg (Pasteurella multocida): 90%; minimal inhibitory concentration (MIC) [17]: 1; minimal inhibitory concentration (MIC) [18]: 0.25; minimal inhibitory concentration (MIC) [19]: 0.25; minimal inhibitory concentration (MIC) [20]: 0.25 |
| CCC1OC(=O)CC(O)C(C)C(OC2OC(C)C(OC(C)=O)C(N(C)C)C2OC(C)=O)C(CC=O)CC(C)C(=O)C=CC(C)=CC1COC(=O)[C@H](NC(=O)OC(C)(C)C)c1ccccc1 (stereo partly drawn) [Compound 39, 2',4'-Di-O-acetyl-23-O-(N-t-BOC-phenylglycyl)-OMT] | < 0.05 | 1.56 | 12.5 | 12.5 | 12.5 | 1.56 | 12.5 | 6.25 | 12.5 | 25 | 0.195 | 6.25 | 0.5 | 1 | 0.5 | 0.03 | 0.125 | 1 | 2 | 0.5 | mortality at 30 mg/kg (Pasteurella multocida): 100%; minimal inhibitory concentration (MIC) [17]: 2; minimal inhibitory concentration (MIC) [18]: 0.5; minimal inhibitory concentration (MIC) [19]: 0.5; minimal inhibitory concentration (MIC) [20]: 1 |
| CCC1OC(=O)CC(O)C(C)C(OC2OC(C)C(O)C(N(C)C)C2O)C(CC=O)CC(C)C(=O)C=CC(C)=CC1COC(=O)CCc1ccccc1 (stereo not drawn) [Compound 54] | 0.097 | 0.195 | 3.12 | 3.12 | 0.78 | 0.78 | 1.56 | 3.12 | 3.12 | 6.25 | 0.195 | 0.78 | 0.125 | 0.25 | 0.125 | 0.015 | 0.06 | 0.25 | 0.25 | 0.125 | Deaths in Treated Chicks/Number Treated (Pasteurella multocida): 0/10; minimal inhibitory concentration (MIC) [17]: 0.25; minimal inhibitory concentration (MIC) [18]: 0.125; minimal inhibitory concentration (MIC) [19]: 0.125; minimal inhibitory concentration (MIC) [20]: 0.25 |
